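Each compound was tested at five concentrations against cells in 96-well plates for 48 hours. At the GI50, growth is halved.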 Active and inactive are the calls of the source. No stated cut-off is given here; in the data, active = GI50 up to about 1.1 µM and inactive = higher.
How the values were obtained:
Assay in all cases: NCI-60 cell line screen, 48 h
M14 = tested on: M14
NCI-H23 = tested on: NCI-H23
MDA-MB-435 = tested on: MDA-MB-435
SNB-19 = tested on: SNB-19
HOP-92 = tested on: HOP-92
Hs-578T = tested on: Hs-578T
ACHN = tested on: ACHN
SF-295 = tested on: SF-295
SK-MEL-28 = tested on: SK-MEL-28
CAKI-1 = tested on: CAKI-1
SR = tested on: SR
SF-268 = tested on: SF-268
SW-620 = tested on: SW-620
A549 = tested on: A549
NCI-H460 = tested on: NCI-H460
OVCAR-3 = tested on: OVCAR-3
UACC-257 = tested on: UACC-257
OVCAR-8 = tested on: OVCAR-8
A498 = tested on: A498
HL-60 = tested on: HL-60
SK-MEL-2 = tested on: SK-MEL-2
SK-MEL-5 = tested on: SK-MEL-5
UACC-62 = tested on: UACC-62
COLO 205 = tested on: COLO 205
RXF 393 = tested on: RXF 393
MDA-MB-231 = tested on: MDA-MB-231
IGROV-1 = tested on: IGROV-1
CCRF-CEM = tested on: CCRF-CEM
SNB-75 = tested on: SNB-75
MCF7 = tested on: MCF7
TK-10 = tested on: TK-10
RPMI-8226 = tested on: RPMI-8226
786-0 = tested on: 786-0
HT-29 = tested on: HT-29
OVCAR-5 = tested on: OVCAR-5
K562 = tested on: K562
HCT-116 = tested on: HCT-116
HCT-15 = tested on: HCT-15
BT-549 = tested on: BT-549
DU-145 = tested on: DU-145
SF-539 = tested on: SF-539
NCI/ADR-RES = tested on: NCI/ADR-RES
Malme-3M = tested on: Malme-3M
U-251 = tested on: U-251
NCI-H226 = tested on: NCI-H226
SK-OV-3 = tested on: SK-OV-3
LOX IMVI = tested on: LOX IMVI
PC-3 = tested on: PC-3
UO-31 = tested on: UO-31
T47D = tested on: T47D
KM12 = tested on: KM12
OVCAR-4 = tested on: OVCAR-4
NCI-H522 = tested on: NCI-H522
HCC 2998 = tested on: HCC 2998
EKVX = tested on: EKVX
MOLT-4 = tested on: MOLT-4
HOP-62 = tested on: HOP-62
SN12C = tested on: SN12C

CCc1cn2c(/C=N/N=C(N)N)c(-c3cc(C)c(Cl)cc3Cl)nc2s1
GI50 (M14): 1.65 µM (inactive) | GI50 (NCI-H23): 1.77 µM (inactive) | GI50 (MDA-MB-435): 1.41 µM (inactive) | GI50 (SNB-19): 1.54 µM (inactive) | GI50 (HOP-92): 1.64 µM (inactive) | GI50 (Hs-578T): 1.71 µM (inactive) | GI50 (ACHN): 1.68 µM (inactive) | GI50 (SF-295): 0.7 µM (active) | GI50 (SK-MEL-28): 1.48 µM (inactive) | GI50 (CAKI-1): 1.27 µM (inactive) | GI50 (SR): 1.56 µM (inactive) | GI50 (SF-268): 1.98 µM (inactive) | GI50 (SW-620): 1.64 µM (inactive) | GI50 (A549): 1.67 µM (inactive) | GI50 (NCI-H460): 1.86 µM (inactive) | GI50 (OVCAR-3): 1.48 µM (inactive) | GI50 (UACC-257): 1.4 µM (inactive) | GI50 (OVCAR-8): 1.58 µM (inactive) | GI50 (A498): 1.77 µM (inactive) | GI50 (HL-60): 1.82 µM (inactive) | GI50 (SK-MEL-2): 1.82 µM (inactive) | GI50 (SK-MEL-5): 1.63 µM (inactive) | GI50 (UACC-62): 1.42 µM (inactive) | GI50 (COLO 205): 1.64 µM (inactive) | GI50 (RXF 393): 1.74 µM (inactive) | GI50 (MDA-MB-231): 0.865 µM (active) | GI50 (IGROV-1): 1.69 µM (inactive) | GI50 (CCRF-CEM): 0.209 µM (active) | GI50 (SNB-75): 1.55 µM (inactive) | GI50 (MCF7): 1.71 µM (inactive) | GI50 (TK-10): 1.97 µM (inactive) | GI50 (RPMI-8226): 1.24 µM (inactive) | GI50 (786-0): 0.847 µM (active) | GI50 (HT-29): 1.22 µM (inactive) | GI50 (OVCAR-5): 1.61 µM (inactive) | GI50 (K562): 1.01 µM (active) | GI50 (HCT-116): 0.785 µM (active) | GI50 (HCT-15): 1.62 µM | GI50 (BT-549): 1.64 µM (inactive) | GI50 (DU-145): 1.64 µM (inactive) | GI50 (SF-539): 1.74 µM (inactive) | GI50 (NCI/ADR-RES): 3.95 µM (inactive) | GI50 (Malme-3M): 1.37 µM (inactive) | GI50 (U-251): 1.53 µM (inactive) | GI50 (NCI-H226): 1.26 µM (inactive) | GI50 (SK-OV-3): 1.7 µM (inactive) | GI50 (LOX IMVI): 1.35 µM (inactive) | GI50 (PC-3): 1.56 µM (inactive) | GI50 (UO-31): 1.64 µM (inactive) | GI50 (T47D): 1.4 µM (inactive) | GI50 (KM12): 1.58 µM (inactive) | GI50 (OVCAR-4): 1.42 µM (inactive) | GI50 (NCI-H522): 1.87 µM (inactive)

Cc1cccc(/C=C2/C(=O)Nc3ccccc32)n1
GI50 (M14): 15.1 µM (inactive) | GI50 (NCI-H23): 10.4 µM (inactive) | GI50 (MDA-MB-435): 16.7 µM (inactive) | GI50 (SNB-19): 23.7 µM (inactive) | GI50 (HOP-92): 7.82 µM (inactive) | GI50 (Hs-578T): 24.2 µM (inactive) | GI50 (ACHN): 10.3 µM (inactive) | GI50 (SF-295): 17.9 µM (inactive) | GI50 (SK-MEL-28): 24.2 µM (inactive) | GI50 (CAKI-1): 11.9 µM (inactive) | GI50 (SF-268): 14.7 µM (inactive) | GI50 (SW-620): 19.3 µM (inactive) | GI50 (HCC 2998): 10.6 µM (inactive) | GI50 (NCI-H460): 16.9 µM (inactive) | GI50 (OVCAR-3): 14.2 µM (inactive) | GI50 (OVCAR-8): 23.3 µM (inactive) | GI50 (A498): 21.3 µM (inactive) | GI50 (HL-60): 9.95 µM (inactive) | GI50 (SK-MEL-2): 12.8 µM (inactive) | GI50 (SK-MEL-5): 12.9 µM (inactive) | GI50 (EKVX): 16.8 µM (inactive) | GI50 (COLO 205): 19.9 µM (inactive) | GI50 (RXF 393): 10.6 µM (inactive) | GI50 (CCRF-CEM): 15.4 µM (inactive) | GI50 (SNB-75): 28.8 µM (inactive) | GI50 (MCF7): 5.79 µM (inactive) | GI50 (TK-10): 15.7 µM (inactive) | GI50 (RPMI-8226): 14.7 µM (inactive) | GI50 (786-0): 13 µM (inactive) | GI50 (HT-29): 24.1 µM (inactive) | GI50 (OVCAR-5): 11.9 µM (inactive) | GI50 (K562): 9.98 µM (inactive) | GI50 (HCT-116): 12.2 µM (inactive) | GI50 (HCT-15): 13.3 µM | GI50 (BT-549): 21.4 µM (inactive) | GI50 (DU-145): 13.2 µM (inactive) | GI50 (SF-539): 20.5 µM (inactive) | GI50 (NCI/ADR-RES): 14.6 µM (inactive) | GI50 (Malme-3M): 16.3 µM (inactive) | GI50 (U-251): 15.7 µM (inactive) | GI50 (SK-OV-3): 18.1 µM (inactive) | GI50 (PC-3): 16.7 µM (inactive) | GI50 (MOLT-4): 7.5 µM (inactive) | GI50 (UO-31): 14.3 µM (inactive) | GI50 (T47D): 4.95 µM (inactive) | GI50 (KM12): 13.2 µM (inactive) | GI50 (HOP-62): 16.6 µM (inactive) | GI50 (OVCAR-4): 23.4 µM (inactive) | GI50 (NCI-H522): 12.7 µM (inactive)

COc1ccc(-c2cc(-c3ccccc3)nc3c2CC(=O)Nc2ccccc2-3)cc1OC
GI50 (M14): > 100 µM (inactive) | GI50 (NCI-H23): > 100 µM (inactive) | GI50 (MDA-MB-435): > 100 µM (inactive) | GI50 (HOP-92): 5.46 µM (inactive) | GI50 (Hs-578T): 0.855 µM (active) | GI50 (ACHN): 4.67 µM (inactive) | GI50 (SF-295): > 100 µM (inactive) | GI50 (SN12C): 1.26 µM (inactive) | GI50 (SK-MEL-28): > 100 µM (inactive) | GI50 (CAKI-1): > 100 µM (inactive) | GI50 (SR): 8.18 µM (inactive) | GI50 (SF-268): 0.933 µM (active) | GI50 (SW-620): > 21.4 µM (inactive) | GI50 (HCC 2998): > 100 µM (inactive) | GI50 (NCI-H460): > 100 µM (inactive) | GI50 (OVCAR-3): 4.07 µM (inactive) | GI50 (UACC-257): > 100 µM (inactive) | GI50 (OVCAR-8): 0.125 µM (active) | GI50 (A498): 1.89 µM (inactive) | GI50 (SK-MEL-2): > 100 µM (inactive) | GI50 (SK-MEL-5): 68.5 µM (inactive) | GI50 (UACC-62): > 100 µM (inactive) | GI50 (EKVX): > 100 µM (inactive) | GI50 (COLO 205): > 27.9 µM (inactive) | GI50 (RXF 393): 6.73 µM (inactive) | GI50 (MDA-MB-231): 1.32 µM (inactive) | GI50 (IGROV-1): > 100 µM (inactive) | GI50 (CCRF-CEM): > 100 µM (inactive) | GI50 (SNB-75): 0.424 µM (active) | GI50 (MCF7): > 20 µM (inactive) | GI50 (TK-10): > 56.1 µM (inactive) | GI50 (RPMI-8226): > 100 µM (inactive) | GI50 (786-0): 4.79 µM (inactive) | GI50 (HT-29): 0.719 µM (active) | GI50 (OVCAR-5): > 100 µM (inactive) | GI50 (K562): 1.45 µM (inactive) | GI50 (HCT-15): > 100 µM | GI50 (BT-549): > 100 µM (inactive) | GI50 (DU-145): > 100 µM (inactive) | GI50 (SF-539): 13.9 µM (inactive) | GI50 (NCI/ADR-RES): 1.37 µM (inactive) | GI50 (U-251): 4.17 µM (inactive) | GI50 (NCI-H226): 2.92 µM (inactive) | GI50 (SK-OV-3): 5.74 µM (inactive) | GI50 (LOX IMVI): 2 µM (inactive) | GI50 (PC-3): > 100 µM (inactive) | GI50 (MOLT-4): > 100 µM (inactive) | GI50 (UO-31): 5.69 µM (inactive) | GI50 (T47D): > 68.9 µM (inactive) | GI50 (KM12): > 100 µM (inactive) | GI50 (HOP-62): 1.81 µM (inactive) | GI50 (OVCAR-4): 1.2 µM (inactive) | GI50 (NCI-H522): > 76.7 µM (inactive)

— ChEMBL document CHEMBL1201862, “PubChem BioAssay data set” (2004)
